Test results reported in patent US10308618B2, “Blue light cutting optical material comprising a benzotriazole UV absorber” (ESSILOR INTERNATIONAL, priority 2016, dated 2019).

Assays:
[1] = Solubilization of the benzotriazole UV absorber in the ISO monomer; assay type: physicochemical; conditions: in isocyanate monomer, compared with comparative benzotriazole VII
Experimental: For polythiourethane matrix, solubility during processing and compatibility of inventive and comparative benzotriazoles were assessed in two stages. First, initial solubilization of the benzotriazole UV absorber in the isocyanate monomer was assessed.

[2] = Transmission spectra: transmittance and light cut-off wavelength; assay type: physicochemical
Description: The light cut-off wavelength of the optical material is preferably higher than or equal to 400 nm, more preferably higher than or equal to 405 nm, and even more preferably higher than or equal to 410 nm. It is preferably lower than 465 nm, more preferably lower than 450 nm. In the present disclosure, the light cut-off wavelength is defined as the wavelength below which light transmission becomes lower than 1%. In other words, it is the highest wavelength for which the transmittance is lower than 1%. The higher the light cut-off wavelength, the better the blue light cutting properties.
In the present description, unless otherwise specified, optical transmittances/transmissions are measured at the center of the optical article for a thickness ranging from 0.7 to 2 mm, preferably 2 mm, at normal incidence. As used herein, optical transmittance within a wavelength range is an average of light transmitted within this range and is not weighted according to the sensitivity of the eye at each wavelength of the range, unless otherwise specified. Last, optical transmittance is measured for optical articles having no coatings, in particular no antireflective coatings.
The light cut-off wavelength was determined from the transmission spectra, which are shown on FIGS. 1 and 2. […]

CCCCCCCCOC(=O)CCc1cc(-n2nc3ccc(Cl)cc3n2)c(O)c(C(C)(C)C)c1 [Benzotriazole IV, n-octyl-3-[3-tert-butyl-4-hydroxy-5-(5-chloro-2H-benzotriazol-2-yl)phenyl] propionate]
Dissolution properties [1]: improved dissolution properties

octyl-3-[3-tert-butyl-4-hydroxy-5-(2H-benzotriazol-2-yl)-phenyl] propionate branched and linear alkyl esters [Eversorb® 82]
optical transmittance for each light wavelength ranging from 280 to 400 nm ([2]; 2-mm thick layer of material): lower than 1%
T (%) at 430 nm ([2]; 2 mm thick material, 430 nm): higher than 65%
